# From PMC8842743 (Journal of Alzheimer's Disease Reports, 2022)
# Tested on: healthy subjects
# Test: Clinical liver safety laboratory data over time
# Type: in vivo, human
# Settings: mean (SD)
smiles,measurement,setting,value
COc1cnc(C(=O)Nc2ccc(F)c([C@]34CN(c5ncc(F)cn5)C[C@H]3CSC(N)=N4)c2)cn1 [LY3202626],Albumin,"6 mg daily, Day 8",46.3 (1.6) g/L
same,GGT,"6 mg daily, Day 8",21.7 (10.8) U/L
same,Total Bilirubin,"6 mg daily, Day 8",8.1 (2.8) umol/L
same,ALP,"6 mg daily, Day 10",62.9 (15.4) U/L
same,ALT,"6 mg daily, Day 10",17.9 (2.3) U/L
same,AST,"6 mg daily, Day 10",19.6 (6.0) U/L
same,Albumin,"6 mg daily, Day 10",46.0 (1.7) g/L
same,GGT,"6 mg daily, Day 10",20.6 (8.7) U/L
same,Total Bilirubin,"6 mg daily, Day 10",8.2 (2.7) umol/L
same,ALP,"6 mg daily, Day 12",63.6 (17.2) U/L
same,ALT,"6 mg daily, Day 12",16.9 (2.5) U/L
same,AST,"6 mg daily, Day 12",17.2 (3.8) U/L
same,Albumin,"6 mg daily, Day 12",46.7 (1.6) g/L
same,GGT,"6 mg daily, Day 12",20.3 (8.2) U/L
same,Total Bilirubin,"6 mg daily, Day 12",7.4 (2.4) umol/L
same,ALP,"6 mg daily, Day 14",62.2 (16.0) U/L
same,ALT,"6 mg daily, Day 14",15.2 (2.5) U/L
same,AST,"6 mg daily, Day 14",15.3 (4.3) U/L
same,Albumin,"6 mg daily, Day 14",44.4 (1.8) g/L
same,GGT,"6 mg daily, Day 14",19.3 (10.3) U/L
same,Total Bilirubin,"6 mg daily, Day 14",8.1 (5.0) umol/L
same,ALP,"6 mg daily, Day 15",58.9 (14.3) U/L
same,ALT,"6 mg daily, Day 15",16.1 (2.9) U/L
same,AST,"6 mg daily, Day 15",15.9 (3.9) U/L
same,Albumin,"6 mg daily, Day 15",43.8 (2.1) g/L
same,GGT,"6 mg daily, Day 15",18.6 (8.6) U/L
same,Total Bilirubin,"6 mg daily, Day 15",7.3 (3.0) umol/L
same,ALP,"6 mg daily, Day 17",65.0 (18.7) U/L
same,ALT,"6 mg daily, Day 17",19.8 (4.3) U/L
same,AST,"6 mg daily, Day 17",18.9 (3.5) U/L
same,Albumin,"6 mg daily, Day 17",46.0 (1.7) g/L
same,GGT,"6 mg daily, Day 17",20.9 (9.7) U/L
same,Total Bilirubin,"6 mg daily, Day 17",6.3 (4.7) umol/L
same,ALP,"26 mg daily, Day 1 predose",56.9 (12.0) U/L
same,ALT,"26 mg daily, Day 1 predose",16.9 (6.3) U/L
same,AST,"26 mg daily, Day 1 predose",15.2 (2.5) U/L
same,Albumin,"26 mg daily, Day 1 predose",46.3 (1.9) g/L
same,GGT,"26 mg daily, Day 1 predose",18.3 (8.2) U/L
same,Total Bilirubin,"26 mg daily, Day 1 predose",9.0 (2.6) umol/L
same,ALP,"26 mg daily, Day 2",57.9 (11.3) U/L
same,ALT,"26 mg daily, Day 2",15.6 (6.2) U/L
same,AST,"26 mg daily, Day 2",14.6 (2.7) U/L
same,Albumin,"26 mg daily, Day 2",46.2 (1.9) g/L
same,GGT,"26 mg daily, Day 2",18.9 (8.5) U/L
same,Total Bilirubin,"26 mg daily, Day 2",8.6 (2.6) umol/L
same,ALP,"26 mg daily, Day 3",57.2 (11.1) U/L
same,ALT,"26 mg daily, Day 3",16.2 (6.4) U/L
same,AST,"26 mg daily, Day 3",14.9 (3.6) U/L
same,Albumin,"26 mg daily, Day 3",45.0 (2.7) g/L
same,GGT,"26 mg daily, Day 3",18.6 (8.8) U/L
same,Total Bilirubin,"26 mg daily, Day 3",7.1 (2.3) umol/L
same,ALP,"26 mg daily, Day 4",58.6 (10.8) U/L
same,ALT,"26 mg daily, Day 4",16.9 (5.6) U/L
same,AST,"26 mg daily, Day 4",16.8 (3.8) U/L
same,Albumin,"26 mg daily, Day 4",46.0 (1.9) g/L
same,GGT,"26 mg daily, Day 4",19.0 (9.6) U/L
same,Total Bilirubin,"26 mg daily, Day 4",6.7 (1.4) umol/L
same,ALP,"26 mg daily, Day 6",57.6 (12.0) U/L
same,ALT,"26 mg daily, Day 6",16.2 (5.2) U/L
same,AST,"26 mg daily, Day 6",17.8 (3.2) U/L
same,Albumin,"26 mg daily, Day 6",44.9 (2.0) g/L
same,GGT,"26 mg daily, Day 6",18.2 (8.5) U/L
same,Total Bilirubin,"26 mg daily, Day 6",8.6 (3.0) umol/L
same,ALP,"26 mg daily, Day 8",59.3 (10.8) U/L
same,ALT,"26 mg daily, Day 8",16.8 (4.5) U/L
same,AST,"26 mg daily, Day 8",16.4 (3.0) U/L
same,Albumin,"26 mg daily, Day 8",46.3 (2.9) g/L
same,GGT,"26 mg daily, Day 8",18.6 (7.2) U/L
same,Total Bilirubin,"26 mg daily, Day 8",8.6 (4.6) umol/L
same,ALP,"26 mg daily, Day 10",60.7 (11.4) U/L
same,ALT,"26 mg daily, Day 10",15.8 (5.5) U/L
same,AST,"26 mg daily, Day 10",16.1 (2.7) U/L
same,Albumin,"26 mg daily, Day 10",45.8 (2.0) g/L
same,GGT,"26 mg daily, Day 10",17.9 (7.4) U/L
same,Total Bilirubin,"26 mg daily, Day 10",8.7 (4.2) umol/L
same,ALP,"26 mg daily, Day 12",60.1 (9.6) U/L
same,ALT,"26 mg daily, Day 12",16.9 (5.6) U/L
same,AST,"26 mg daily, Day 12",18.3 (3.5) U/L
same,Albumin,"26 mg daily, Day 12",44.9 (2.3) g/L
same,GGT,"26 mg daily, Day 12",17.7 (7.4) U/L
same,Total Bilirubin,"26 mg daily, Day 12",8.3 (4.5) umol/L
same,ALP,"26 mg daily, Day 14",59.3 (10.2) U/L
same,ALT,"26 mg daily, Day 14",17.1 (7.4) U/L
same,AST,"26 mg daily, Day 14",16.3 (4.0) U/L
same,Albumin,"26 mg daily, Day 14",43.7 (2.2) g/L
same,GGT,"26 mg daily, Day 14",18.1 (8.8) U/L
same,Total Bilirubin,"26 mg daily, Day 14",5.8 (2.4) umol/L
same,ALP,"26 mg daily, Day 15",58.6 (9.6) U/L
same,ALT,"26 mg daily, Day 15",16.8 (7.8) U/L
same,AST,"26 mg daily, Day 15",16.2 (4.6) U/L
same,Albumin,"26 mg daily, Day 15",44.0 (2.6) g/L
same,GGT,"26 mg daily, Day 15",17.6 (8.8) U/L
same,Total Bilirubin,"26 mg daily, Day 15",7.2 (1.9) umol/L
same,ALP,"26 mg daily, Day 17",65.7 (11.5) U/L
same,ALT,"26 mg daily, Day 17",20.0 (9.8) U/L
same,AST,"26 mg daily, Day 17",18.6 (6.2) U/L
same,Albumin,"26 mg daily, Day 17",45.9 (1.3) g/L
same,GGT,"26 mg daily, Day 17",20.7 (11.1) U/L
same,Total Bilirubin,"26 mg daily, Day 17",7.3 (4.6) umol/L
